Measured values published in patent US20190023733A1, “AMINE DERIVATIVES OF LUPANES WITH HIV MATURATION INHIBITORY ACTIVITY” (priority 2016, published 2019).
Counter-ions that a name gives are not always drawn.

Tests used:
[1] = test system: HIV-1 (strain IIIB); assay: MT4 cell antiviral assay (as described in the method); type: cell-based; conditions: Human immunodeficiency virus 1, IIIB, control and standard in every assay, propidium iodide readout, read-out: expected range of IC50 values
Protocol: Antiviral HIV activity and compound-induced cytotoxicity were measured in parallel by means of a propidium iodide based procedure in the human T-cell lymphotropic virus transformed cell line MT4. Aliquots of the test compounds were serially diluted in medium (RPMI 1640, 10% fetal calf serum (FCS), and gentamycin) in 96-well plates (Costar 3598) using a Cetus Pro/Pette. Exponentially growing MT4 cells were harvested and centrifuged at 1000 rpm for 10 min in a Jouan centrifuge (model CR 4 12). Cell pellets were resuspended in fresh medium (RPMI 1640, 20% FCS, 20% IL-2, and gentamycin) to a density of 5×10^5 cells/ml. […]
For propidium iodide readout, 27 μl of 5% Nonidet-40 was added to each well of the incubation plate. […] The plates were analyzed in an automated assay instrument (Screen Machine, Idexx Laboratories). […]
For MTS readout, 20 μl CellTiter 96 AQ One Solution reagent (Promega #G3582) was added to each well. At 75 minutes following the addition of MTS reagent, absobance was read at 492 nm using a Tecan Sunrise 96-well plate reader. […]
For each assay plate, the results (relative fluorescence units, rfU, or OD values) of wells containing uninfected cells or infected cells with no compound were averaged, respectively. […] Percent of cells remaining is determined by the following formula: […]

[2] = test system: HIV; conditions: cited from earlier work
[3] = test system: HIV-1 NL4-3 wt; assay: MT4 cell antiviral assay, NL4-3 wt; type: cell-based; conditions: Human immunodeficiency virus 1, NL43, 120 h; MT4 cells, 5 days, HIV-induced cytopathic effect
[4] = test system: HIV-1 V370A; assay: MT4 cell antiviral assay, V370A; type: cell-based; conditions: Human immunodeficiency virus 1, MT4, 120 h, read-out: EC50 V370A

Row | SMILES | EC50 [3] [nM] | EC50 [4] [nM] | further results
1 | Cc1cn([C@H]2C[C@H](N=[N+]=[N-])[C@@H](CO)O2)c(=O)[nH]c1=O [3′-azido-3′-deoxythymidine] |  |  | IC50 [1]: 40 to 120 nM
2 | C=C(C)[C@@H]1CC[C@]2(C(=O)O)CC[C@]3(C)[C@H](CC[C@@H]4[C@@]5(C)CC[C@H](OC(=O)CC(C)(C)C(=O)O)C(C)(C)[C@@H]5CC[C@]43C)[C@@H]12 [Bevirimat] |  |  | mean reduction of HIV viral load ([2]; patients with trough levels >=20 μg/mL and no key baseline Gag polymorphisms at Q369, V370 or T371): 1.3 log10/mL; viral load reduction versus patients without Gag polymorphisms ([2]; users with Gag polymorphisms at Q369, V370 or T371): significantly lower load reductions
3 | CC(C)C1=C2[C@H]3CC[C@@H]4[C@@]5(C)CC=C(C6=CCC(C(=O)O)CC6)C(C)(C)[C@@H]5CC[C@@]4(C)[C@]3(C)CC[C@@]2(NCCN2CCC(S(C)(=O)=O)CC2)CC1=O (stereo partly drawn) [Example 1, 4-((3aR,5aR,5bR,7aR,11aS,11bR,13aS)-1-Isopropyl-5a,5b,8,8,11a-pentamethyl-3a-((2-(4-(methylsulfonyl)piperidin-1-yl)ethyl)amino)-2-oxo-3,3a,4,5,5a,5b,6,7,7a,8,11,11a,11b,12,13,13a-hexadecahydro-2H-cyclopenta[a]chrysen-9-yl)cyclohex-3-enecarboxylic acid] | 99 | 352 | 
4 | CC(C)C1=C2[C@H]3CC[C@@H]4[C@@]5(C)CC=C(C6=CCC(C(=O)O)CC6)C(C)(C)[C@@H]5CC[C@@]4(C)[C@]3(C)CC[C@@]2(NCCN2CCS(=O)(=O)CC2)CC1=O (stereo partly drawn) [Example 2, 4-((3aR,5aR,5bR,7aR,11aS,11bR,13aS)-3a-((2-(1,1-Dioxidothiomorpholino)ethyl)amino)-1-isopropyl-5a,5b,8,8,11a-pentamethyl-2-oxo-3,3a,4,5,5a,5b,6,7,7a,8,11,11a,11b,12,13,13a-hexadecahydro-2H-cyclopenta[a]chrysen-9-yl)cyclohex-3-enecarboxylic acid] | 8 | 18 | 
5 | CC(C)C1=C2[C@H]3CC[C@@H]4[C@@]5(C)CC=C(C6=CCC(C(=O)O)CC6)C(C)(C)[C@@H]5CC[C@@]4(C)[C@]3(C)CC[C@@]2(NCCN(CCN(C)C)Cc2ccc(Cl)cc2)CC1=O (stereo partly drawn) [Example 3, 4-((3aR,5aR,5bR,7aR,11aS,11bR,13aS)-3a-((2-((4-Chlorobenzyl)(2-(dimethylamino)ethyl)amino)ethyl)amino)-1-isopropyl-5a,5b,8,8,11a-pentamethyl-2-oxo-3,3a,4,5,5a,5b,6,7,7a,8,11,11a,11b,12,13,13a-hexadecahydro-2H-cyclopenta[a]chrysen-9-yl)cyclohex-3-enecarboxylic acid] | 11 | 42 | 
6 | CC(C)C1=C2[C@H]3CC[C@@H]4[C@@]5(C)CC=C(c6ccc(C(=O)O)cc6)C(C)(C)[C@@H]5CC[C@@]4(C)[C@]3(C)CC[C@@]2(NCCN(CCN(C)C)Cc2ccc(Cl)cc2)CC1=O [Example 4, 4-((3aR,5aR,5bR,7aR,11aS,11bR,13aS)-3a-((2-((4-Chlorobenzyl)(2-(dimethylamino)ethyl)amino)ethyl)amino)-1-isopropyl-5a,5b,8,8,11a-pentamethyl-2-oxo-3,3a,4,5,5a,5b,6,7,7a,8,11,11a,11b,12,13,13a-hexadecahydro-2H-cyclopenta[a]chrysen-9-yl)benzoic acid hydrochloride salt] | 29 |  | 
7 | CC(C)C1=C2[C@H]3CC[C@@H]4[C@@]5(C)CC=C(c6ccc(C(=O)O)cc6)C(C)(C)[C@@H]5CC[C@@]4(C)[C@]3(C)CC[C@@]2(NCCN2CCS(=O)(=O)CC2)CC1=O [Example 5, 4-((3aR,5aR,5bR,11aS)-3a-((2-(1,1-Dioxidothiomorpholino)ethyl)amino)-1-isopropyl-5a,5b,8,8,11a-pentamethyl-2-oxo-3,3a,4,5,5a,5b,6,7,7a,8,11,11a,11b,12,13,13a-hexadecahydro-2H-cyclopenta[a]chrysen-9-yl)benzoic acid hydrochloride] | 30 | 776 | 
8 | CC(C)C1=C2C3CCC4[C@@]5(C)CC=C(c6ccc(C(=O)O)cc6)C(C)(C)C5CC[C@@]4(C)[C@]3(C)CC[C@@]2(NC(=O)CN2CCS(=O)(=O)CC2)CC1=O (stereo partly drawn) [Example 6, 4-((3aR,5aR,5bR,11aS)-3a-(2-(1,1-Dioxidothiomorpholino)acetamido)-1-isopropyl-5a,5b,8,8,11a-pentamethyl-2-oxo-3,3a,4,5,5a,5b,6,7,7a,8,11,11a,11b,12,13,13a-hexadecahydro-2H-cyclopenta[a]chrysen-9-yl)benzoic acid hydrochloride salt] | 159 |  | 
9 | CC(C)C1=C2C3CCC4[C@@]5(C)CC=C(c6ccc(C(=O)O)cc6)C(C)(C)C5CC[C@@]4(C)[C@]3(C)CC[C@@]2(NC(=O)N(CCN(C)C)Cc2ccc(Cl)cc2)CC1=O (stereo partly drawn) [Example 7, 4-((3aR,5aR,5bR,11aS)-3a-(3-(4-chlorobenzyl)-3-(2-(dimethylamino)ethyl)ureido)-1-isopropyl-5a,5b,8,8,11a-pentamethyl-2-oxo-3,3a,4,5,5a,5b,6,7,7a,8,11,11a,11b,12,13,13a-hexadecahydro-2H-cyclopenta[a]chrysen-9-yl)benzoic acid] | 6.3 |  | 
10 | CC(C)C1=C2C3CCC4[C@@]5(C)CC=C(c6ccc(C(=O)O)cc6)C(C)(C)C5CC[C@@]4(C)[C@]3(C)CC[C@@]2(NC(=O)CN(CCN(C)C)Cc2ccc(Cl)cc2)CC1=O (stereo partly drawn) [Example 8, 4-((3aR,5aR,5bR,11aS)-3a-(2-((4-chlorobenzyl)(2-(dimethylamino)ethyl)amino)acetamido)-1-isopropyl-5a,5b,8,8,11a-pentamethyl-2-oxo-3,3a, 4,5,5a,5b,6,7,7a,8,11,11a,11b,12,13,13a-hexadecahydro-2H-cyclopenta[a]chrysen-9-yl)benzoic acid] | 2 | 8 | 
